Measurements as given in US11124510B2, “Alkyl chain modified imidazoquinoline TLR7/8 agonist compounds and uses thereof” (Dynavax Technologies Corporation, priority 2017, dated 2021).

How the values were obtained:
TLR7 = TLR7 (Homo sapiens (Human), UniProt Q9NYK1); experiment: TLR7 agonist bioactivity: induction of IFNα protein in pDC-enriched PBMC cultures (ELISA, 24 h); format: cell-based; conditions: for TLR7 (% of Compound No. 63-00 EC50 Value): EC50 expressed as percentage of EC50 of Compound No. 63-00; for EC50: IFNα induction, pDC-enriched human PBMC, 24 hours; for fold loss of TLR7 agonist potency compared to Compound No. 63-00 (IMDQ): less potent than IMDQ
Method: Plasmacytoid dendritic cell (pDC)—enriched peripheral blood mononuclear cells (PBMCs) were prepared from the blood of a series of human donors (3-5 donors/experiment). PBMCs were isolated using Ficoll-Paque Premium® (GE Healthcare, Chicago Ill.) using methods well known to those in the art. pDCs were magnetically isolated from the total recovered PBMC population using CD304 (BDCA-4/Neuropilin-1) microbeads (Miltenyi Biotec, San Diego Calif.), according to the manufacturer's instructions. Isolated pDCs were then added back to between 1 and 2×10^8 of the corresponding donor's PBMCs for relative enrichment of this cell type. […] Culture supernatants were collected and interferon-alpha (IFNα) protein levels were measured by ELISA (MabTech, Cincinnati Ohio), according to the manufacturer's instructions.

serum IL-6 and IL-12p40 = experiment: In vivo systemic immune activation assay: serum IL-6 and IL-12p40 by ELISA after single subcutaneous injection; set-up: species or system mice; conditions: 5 μg subcutaneously in footpad, 95% sesame oil/5% ethanol, ± SEM
Method: Small molecule TLR7 and TLR7/8 agonists derived from the 1H-imidazo[4,5-c]quinoline privileged template (see e.g., Imiquimod, Resiquimod) are known to rapidly distribute to the systemic compartment following intratumoral, subcutaneous, or intramuscular injection. Broad systemic distribution of these agonist compounds in wild-type mice induces TLR7-dependent cytokine responses, primarily in spleen and liver cells, which can subsequently be detected in the serum within 3-6 hours. The rapid increase in serum cytokine biomarkers (e.g., IL-6 and IL-12p40) can be used to assess the kinetics of systemic distribution of a locally administered TLR agonist.
The kinetics of distribution of pharmaceutical compositions comprised of Compound Nos. 63-00, 63-17, or 63-10 formulated in 95% sesame oil/5% ethanol (v/v) were assessed following a single subcutaneous injection in wild-type mice. All in vivo procedures were conducted in accordance with approved Institutional Animal Care and Use Committee (IACUC) protocols. The animals were housed in a facility that is accredited by the Association for Accreditation and Laboratory Animal Care (AALAC, Frederick Md.). Wild-type female BALB/c mice (15-20 gm) were obtained from Envigo (Hayward, Calif.) and acclimated for 2-3 days prior to use.
The pharmaceutical compositions were made with the three compounds, at a final concentration of 200 μg/mL, in a manner similar to that described in Example B2-1. At T=0, groups of 3 mice were anesthetized with 1% isoflurane and injected subcutaneously in the right footpad with 5 μg of each of the three compounds, or a vehicle control, in 25 uL of 95% sesame oil/5% ethanol (v/v). Then, at T=3, 6, and 24 hours, three animals from each group were anesthetized with 1% isoflurane to facilitate blood collection by cardiac puncture. Samples were processed to serum, and stored at −20° C. for further analysis.

CT26 colon carcinoma [1] = experiment: Anti-tumor efficacy in combination with anti-PD-1 antibody in dual flank CT26 colon carcinoma-bearing mice; format: in vivo; conditions: for tumor growth inhibition in the injected tumor (right flank) compared to the anti-PD-1 treatment alone / tumor growth inhibition in the distal tumor (left flank) compared to the anti-PD-1 treatment alone: 5,000 ng single intratumoral dose day 14, in combination with anti-PD-1; for tumor growth inhibition in the distal tumor (left flank) compared to the anti-PD-1 treatment alone: day 29; for injected tumor growth inhibition, difference from the anti-PD-1 treatment control at day 29: 5,000 ng single intratumoral dose, in combination with anti-PD-1, Kruskall-Wallis/Dunn
Method: All in vivo procedures were conducted in accordance with approved IACUC protocols. The animals were housed in a facility that is accredited by the AALAC. Wild-type female Balb/c mice (15-20 g) were obtained from Envigo (Hayward, Calif.) and acclimated for 2-3 days prior to use.
The pharmaceutical compositions were made using Compound No. 63-10 or 63-33 at final concentrations of 50,000 ng/mL in a manner similar to that described for Example B2-1. […] On day 0, mice were anesthetized with 1% isoflurane, and 80,000 CT26 tumor cells in 200 uL of RMPI-1640 culture media plus 2.5% fetal bovine serum were injected subcutaneously in both the right and left flanks. Tumors (left and right) were allowed to grow until day 8, when the right and left flank tumor sizes had reached approximately 35 mm^3, at which point mice were injected intraperitoneally with 250 μg of anti-PD-1 antibody formulated in phosphate buffered saline or a phosphate buffered saline vehicle control. The anti-PD-1 treatments were repeated on experimental days 12, 15, 19, 22, and 26. On experimental day 14, when the right (injected) and left (distal) flank tumors had reached approximately 100 mm^3, mice were randomized into treatment groups. […] Tumor sizes were measured twice weekly from days 14 through day 29 with calipers, with tumor volumes calculated using the formula: length, multiplied by width, multiplied by width, divided by 2.

TLR8 = TLR8 (Homo sapiens (Human), UniProt Q9NR97); experiment: TLR8 agonist bioactivity: induction of TNFα protein in monocyte cultures (ELISA, 24 h); format: cell-based; conditions: for TLR8 (% of Compound No. 63-00 EC50 Value): EC50 expressed as percentage of EC50 of Compound No. 63-00; for EC50: TNFα induction, human monocytes, 24 hours; for fold increase of TLR8 agonist potency compared to Compound No. 63-00 (IMDQ): more potent than IMDQ
Method: Monocytes were magnetically isolated from PBMCs, prepared as described above, following labeling with CD14 microbeads (Miltenyi Biotec, San Diego Calif.), according to the manufacturer's instructions. […] Culture supernatants were collected and tumor necrosis factor alpha (TNFα) protein levels were measured by ELISA (MabTech, Cincinnati Ohio), according to the manufacturer's instructions.

CT26 colon carcinoma [2] = experiment: Anti-tumor efficacy, repeated intratumoral dosing in CT26 colon carcinoma-bearing wild-type mice; format: in vivo; conditions: 0.5-20 μg in 95% sesame oil/5% ethanol
Method: The effect of repeated weekly doses of intratumorally delivered pharmaceutical compositions comprised of Compound No. 63-10, 63-18, or 63-33 formulated in 95% sesame oil/5% ethanol (v/v) on tumor growth inhibition was assessed in syngeneic CT26 colon carcinoma-bearing Balb/c mice. All in vivo procedures were conducted in accordance with approved Institutional Animal Care and Use Committee (IACUC) protocols. The animals were housed in a facility that is accredited by the Association for Accreditation and Laboratory Animal Care (AALAC, Frederick, Md.). Wild-type female Balb/c mice (15-20 gm) were obtained from Envigo (Hayward, Calif.) and acclimated for 2-3 days prior to use.
The pharmaceutical compositions were made with the three compounds at final concentrations of 5, 50, and 200 μg/mL in a manner similar to that described in Example B2-1. […] On day 0, mice were anesthetized with 1% isoflurane and 80,000 CT26 tumor cells in 200 uL of RMPI-1640 culture media plus 2.5% fetal bovine serum were injected subcutaneously in the right flank. Tumors were allowed to grow until they were ˜35 mm^3, at which point animals were assigned to groups to begin treatment. Mice were injected weekly for 4 weeks intratumorally with 100 uL of a pharmaceutical composition comprising 20, 5, or 0.5 μgs of Compound No. 63-10, or 20 or 5 μgs of Compound Nos. 63-18, or 63-33 formulated in 95% sesame oil/5% ethanol (v/v), or a vehicle control, twice weekly for 3 weeks (experimental days 9, 12, 16, 19, 23, and 26). The TLR9 CpG agonist was injected intratumorally with 100 μL of a pharmaceutical composition comprised of 50 μgs of compound formulated in phosphate buffered saline on the same dosing schedule. Tumor sizes were measured twice weekly from days 8 through day 30 with calipers, with tumor volumes calculated using the formula: length, multiplied by width, multiplied by width, divided by 2.

Sequence of TLR7 (Q9NYK1 27-1049): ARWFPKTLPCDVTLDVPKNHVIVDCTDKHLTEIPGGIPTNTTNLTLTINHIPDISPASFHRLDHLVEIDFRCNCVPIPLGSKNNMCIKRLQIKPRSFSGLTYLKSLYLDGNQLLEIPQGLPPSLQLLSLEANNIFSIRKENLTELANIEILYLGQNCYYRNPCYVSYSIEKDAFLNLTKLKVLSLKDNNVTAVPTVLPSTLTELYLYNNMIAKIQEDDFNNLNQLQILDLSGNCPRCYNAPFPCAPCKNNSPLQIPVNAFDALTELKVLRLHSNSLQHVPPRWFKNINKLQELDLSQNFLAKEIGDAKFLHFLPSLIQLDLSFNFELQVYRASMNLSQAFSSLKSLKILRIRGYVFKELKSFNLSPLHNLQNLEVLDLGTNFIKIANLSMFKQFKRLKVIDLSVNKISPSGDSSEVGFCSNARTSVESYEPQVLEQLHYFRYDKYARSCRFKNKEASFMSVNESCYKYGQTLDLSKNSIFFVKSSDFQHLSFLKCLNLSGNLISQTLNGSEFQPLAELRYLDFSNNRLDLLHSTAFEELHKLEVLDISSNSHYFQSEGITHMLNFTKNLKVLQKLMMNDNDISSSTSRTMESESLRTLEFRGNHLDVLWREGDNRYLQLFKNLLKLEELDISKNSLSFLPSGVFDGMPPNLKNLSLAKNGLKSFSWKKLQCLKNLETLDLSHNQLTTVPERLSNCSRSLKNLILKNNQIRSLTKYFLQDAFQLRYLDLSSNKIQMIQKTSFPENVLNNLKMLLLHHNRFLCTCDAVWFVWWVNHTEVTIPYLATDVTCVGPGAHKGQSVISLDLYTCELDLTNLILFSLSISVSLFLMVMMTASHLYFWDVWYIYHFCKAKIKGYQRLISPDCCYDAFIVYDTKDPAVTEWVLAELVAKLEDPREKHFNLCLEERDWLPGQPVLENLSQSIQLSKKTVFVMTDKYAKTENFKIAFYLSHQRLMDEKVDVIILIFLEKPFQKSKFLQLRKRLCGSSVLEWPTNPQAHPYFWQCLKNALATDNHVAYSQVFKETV
Sequence of TLR8 (Q9NR97 27-1041): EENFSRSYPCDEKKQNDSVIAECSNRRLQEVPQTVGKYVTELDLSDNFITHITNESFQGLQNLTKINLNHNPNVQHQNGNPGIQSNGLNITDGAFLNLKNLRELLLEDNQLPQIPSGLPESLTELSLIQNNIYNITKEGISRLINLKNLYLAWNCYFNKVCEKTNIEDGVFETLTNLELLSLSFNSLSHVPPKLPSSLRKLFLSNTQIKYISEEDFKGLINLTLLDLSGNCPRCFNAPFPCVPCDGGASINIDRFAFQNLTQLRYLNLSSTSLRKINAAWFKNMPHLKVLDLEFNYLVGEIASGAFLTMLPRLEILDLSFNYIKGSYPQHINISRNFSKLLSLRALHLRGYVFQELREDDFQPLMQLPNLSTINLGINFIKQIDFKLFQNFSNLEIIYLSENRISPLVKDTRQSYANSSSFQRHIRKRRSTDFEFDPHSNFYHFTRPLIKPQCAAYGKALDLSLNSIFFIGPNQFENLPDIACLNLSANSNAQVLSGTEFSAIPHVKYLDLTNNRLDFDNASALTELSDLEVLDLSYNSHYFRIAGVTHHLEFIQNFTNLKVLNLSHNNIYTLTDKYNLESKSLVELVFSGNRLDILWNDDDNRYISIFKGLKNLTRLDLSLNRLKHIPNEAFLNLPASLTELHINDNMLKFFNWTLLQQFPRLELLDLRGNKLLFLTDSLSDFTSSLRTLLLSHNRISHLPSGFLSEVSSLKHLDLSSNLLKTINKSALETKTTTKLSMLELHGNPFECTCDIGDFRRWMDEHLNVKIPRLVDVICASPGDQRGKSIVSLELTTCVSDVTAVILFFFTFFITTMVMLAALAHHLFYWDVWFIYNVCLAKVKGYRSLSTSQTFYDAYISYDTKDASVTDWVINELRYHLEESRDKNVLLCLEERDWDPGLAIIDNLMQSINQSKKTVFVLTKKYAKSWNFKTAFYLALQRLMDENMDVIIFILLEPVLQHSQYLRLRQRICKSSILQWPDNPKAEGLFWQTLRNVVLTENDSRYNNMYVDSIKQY

For CCCCc1nc2c(N)nc3ccccc3c2n1Cc1ccc(CN)cc1 [Compound No. 63-00, 1-(4-(aminomethyl)benzyl)-2-butyl-1H-imidazo[4,5-c]quinolin-4-amine, reference compound], the “TLR7 (% of Compound No. 63-00 EC50 Value)” value (TLR7) was 100%, the “serum IL-6” value (serum IL-6 and IL-12p40; 3 hours) was 772 ± 141 pg/mL and the “serum IL-12p40” value (serum IL-6 and IL-12p40; 3 hours) was 139,767±31,024 pg/mL. For the same compound, the “serum IL-6” value (serum IL-6 and IL-12p40; 6 hours) was 160 ± 19 pg/mL, the “serum IL-12p40” value (serum IL-6 and IL-12p40; 6 hours) was 142,359±22,350 pg/mL and the “serum IL-6” value (serum IL-6 and IL-12p40; 24 hours) was 32 ± 2 pg/mL. The “serum IL-12p40” value (serum IL-6 and IL-12p40; 24 hours) was 7,796±1,545 pg/mL, the “tumor growth inhibition in the injected tumor (right flank) compared to the anti-PD-1 treatment alone” value (CT26 colon carcinoma [1]) was “greater tumor growth inhibition” and the “tumor growth inhibition in the distal tumor (left flank) compared to the anti-PD-1 treatment alone” value (CT26 colon carcinoma [1]) was “trend towards greater tumor growth inhibition”. The “injected tumor growth inhibition, difference from the anti-PD-1 treatment control at day 29” value (CT26 colon carcinoma [1]) was “significantly different”.
In the case of CCCCc1nc2c(N)nc3ccccc3c2n1Cc1ccc(CNCCC2CC2)cc1 [Compound No. 63-33, 2-butyl-1-(4-(((2-cyclopropylethyl)amino)methyl)benzyl)-1H-imidazo[4,5-c]quinolin-4-amine], the “TLR7 (% of Compound No. 63-00 EC50 Value)” value (TLR7) is reported as 290%, the EC50 (TLR7) is reported as 4 nM and the “fold loss of TLR7 agonist potency compared to Compound No. 63-00 (IMDQ)” value (TLR7) is reported as 4 fold. The “TLR8 (% of Compound No. 63-00 EC50 Value)” value (TLR8) was 41%, the EC50 (TLR8) was 75 nM and the “fold increase of TLR8 agonist potency compared to Compound No. 63-00 (IMDQ)” value (from here on “fold increase … to Compound No. 63-00 (IMDQ)”) (TLR8) was 2.9 fold. For the same compound, the “CT26 tumor growth control compared to the vehicle control” value (CT26 colon carcinoma [2]) was “robust CT26 tumor growth control”, the “tumor growth inhibition in the injected tumor (right flank) compared to the anti-PD-1 treatment alone” value (CT26 colon carcinoma [1]) was “greater tumor growth inhibition” and the “tumor growth inhibition in the distal tumor (left flank) compared to the anti-PD-1 treatment alone” value (CT26 colon carcinoma [1]) was “trend towards greater tumor growth inhibition”. The “injected tumor growth inhibition, difference from the anti-PD-1 treatment control at day 29” value (CT26 colon carcinoma [1]) was “significantly different”.
CCCCCNCc1ccc(Cn2c(CCCC)nc3c(N)nc4ccccc4c32)cc1 [Compound No. 63-17, 2-butyl-1-(4-((pentylamino)methyl)benzyl)-1H-imidazo[4,5-c]quinolin-4-amine] was tested, and the EC50 (TLR7) was 2 nM, the “fold loss of TLR7 agonist potency compared to Compound No. 63-00 (IMDQ)” value (TLR7) was 2 fold and the EC50 (TLR8) was 104 nM. The “serum IL-6” value (serum IL-6 and IL-12p40; 3 hours) was 853 ± 539 pg/mL, the “serum IL-12p40” value (serum IL-6 and IL-12p40; 3 hours) was 84,731±32,530 pg/mL and the “serum IL-6” value (serum IL-6 and IL-12p40; 6 hours) was 414 ± 105 pg/mL. For the same compound, the “serum IL-12p40” value (serum IL-6 and IL-12p40; 6 hours) was 258,645±19,982 pg/mL, the “serum IL-6” value (serum IL-6 and IL-12p40; 24 hours) was 33 ± 4 pg/mL and the “serum IL-12p40” value (serum IL-6 and IL-12p40; 24 hours) was 19,546±2,116 pg/mL.
For CCCCCCNCc1ccc(Cn2c(CCCC)nc3c(N)nc4ccccc4c32)cc1 [Compound No. 63-18, 2-butyl-1-(4-((hexylamino)methyl)benzyl)-1H-imidazo[4,5-c]quinolin-4-amine], the EC50 (TLR7) was 15 nM, the EC50 (TLR8) was 213 nM and the “fold increase … to Compound No. 63-00 (IMDQ)” value (TLR8) was “slightly improved”. For the same compound, the “CT26 tumor growth control compared to the vehicle control” value (CT26 colon carcinoma [2]) was “robust CT26 tumor growth control”.
CCCCc1nc2c(N)nc3ccccc3c2n1Cc1ccc(CNCCCC2CC2)cc1 [Compound No. 63-43, 2-butyl-1-(4-(((3-cyclopropylpropyl)amino)methyl)benzyl)-1H-imidazo[4,5-c]quinolin-4-amine] was tested, and the “TLR7 (% of Compound No. 63-00 EC50 Value)” value (TLR7) was 440% and the “TLR8 (% of Compound No. 63-00 EC50 Value)” value (TLR8) was 77%.
With CCCCc1nc2c(N)nc3ccccc3c2n1Cc1ccc(CNCC2CCC2)cc1 [Compound No. 63-44, 2-butyl-1-(4-(((cyclobutylmethyl)amino)methyl)benzyl)-1H-imidazo[4,5-c]quinolin-4-amine] the “TLR7 (% of Compound No. 63-00 EC50 Value)” value (TLR7) was 120%, the “fold loss of TLR7 agonist potency compared to Compound No. 63-00 (IMDQ)” value (TLR7) was 1.2 fold and the “TLR8 (% of Compound No. 63-00 EC50 Value)” value (TLR8) was 17%. For the same compound, the “fold increase … to Compound No. 63-00 (IMDQ)” value (TLR8) was 5.9 fold.
CCCCc1nc2c(N)nc3ccccc3c2n1Cc1ccc(CNCC2(C)CCC2)cc1 [Compound No. 63-45, 2-butyl-1-(4-((((1-methylcyclobutyl)methyl)amino)methyl)benzyl)-1H-imidazo[4,5-c]quinoline-4-amine] was tested, and the “TLR7 (% of Compound No. 63-00 EC50 Value)” value (TLR7) was 190%, the “fold loss of TLR7 agonist potency compared to Compound No. 63-00 (IMDQ)” value (TLR7) was 1.9 fold and the “TLR8 (% of Compound No. 63-00 EC50 Value)” value (TLR8) was 13%. The “fold increase … to Compound No. 63-00 (IMDQ)” value (TLR8) was 7.7 fold.
In the case of CCCCc1nc2c(N)nc3ccccc3c2n1Cc1ccc(CNC(=O)CC2CC2)cc1 [Compound No. 63-34, N-(4-((4-amino-2-butyl-1H-imidazo[4,5-c]quinolin-1-yl)methyl)benzyl)-2-cyclopropylacetamide], the EC50 (TLR7) is reported as 8 nM, the “fold loss of TLR7 agonist potency compared to Compound No. 63-00 (IMDQ)” value (TLR7) is reported as 8 fold and the EC50 (TLR8) is reported as 1490 nM. For the same compound, the “fold loss of TLR8 agonist potency compared to Compound No. 63-00 (IMDQ)” value (TLR8; less potent than IMDQ) was 7 fold.
CCCCCCCCCCCCNCc1ccc(Cn2c(CCCC)nc3c(N)nc4ccccc4c32)cc1 [Compound No. 63-24, 2-butyl-1-(4-((dodecylamino)methyl)benzyl)-1H-imidazo[4,5-c]quinolin-4-amine] gave an EC50 (TLR7) of 32 nM and an EC50 (TLR8) of 1040 nM.
